According to ChEMBL document CHEMBL1130736, “Syntheses of new modified Phe-Pro peptides. Use of proline replacements in potential HIV inhibitors” (Bioorg Med Chem Lett, 1998):
Peptide text beside a SMILES is read from it. * marks the point of attachment. Boc = CC(C)(C)OC(=O)*

Tests used:
[1] = tested on: MT4; assay: Concentration required to inhibit syncytia formation by 50% in HIV infected HIV-BRU MT-4 cells; assay type: functional, cell-based, Homo sapiens
[2] = Partition coefficient (logP); assay type: physicochemical; settings: octanol/water
[3] = tested on: MT4; assay: Concentration required to cause 50% death of uninfected MT-4 cells; assay type: functional; settings: Homo sapiens
[4] = Homo sapiens, MT4, read-out: IC50

Structure (SMILES)	IC50 ([1]; mt4)	logP [2]	CC50 [3] [µM]	IC50 [1, 4] [µM]
O=C1CCN(C(=O)[C@H](Cc2ccccc2)NC(=O)c2ccccc2)C1	Not Active	3.17	50	–
CC(C)(C)OC(=O)N[C@@H](Cc1ccccc1)C(=O)N1CCC(O)C1 (stereo not given in full)	–	3.15	100	50
O=C1CCN(C(=O)[C@H](Cc2ccccc2)NC(=O)c2ccc3ccccc3n2)C1	–	3.44	> 100	10
O=C1CCN(C(=O)[C@H](Cc2ccccc2)NC(=O)N(c2ccccc2)c2ccccc2)C1	Not Active	4.86	> 100	–
O=C1CCN(C(=O)[C@H](Cc2ccccc2)NC(=O)c2cccnc2)C1	–	2.31	> 100	0.1
CCCCCCCCOC(=O)N[C@@H](Cc1ccccc1)C(=O)N1CCC(=O)C1	Not Active	5.38	50	–
CC(C)(C)OC(=O)N[C@@H](Cc1ccccc1)C(=O)N1CCC(=O)C1	–	3.97	100	10
CN(C(=O)N[C@@H](Cc1ccccc1)C(=O)N1CCC(=O)C1)c1ccccc1	Not Active	3.33	50	–
O=C1CCN(C(=O)[C@H](Cc2ccccc2)NC(=O)OCc2ccccc2)C1	–	3.97	50	1
CC(C)(C)OC(=O)N[C@@H](Cc1ccccc1)C(=O)N1CCC[C@H]1C(=O)O (Boc-Phe-Pro-OH)	Not Active	3.96	> 100	–
